Literature values in US5272138A, “Naturally occurring gangliosides containing de-N-acetyl-sialic acid and their applications as modifiers of cell physiology” (The Biomembrane Institute, priority 1990, dated 1993).

Conditions: compared with lysolecithin, Taketomi and Kawamura 1970

CCCCCCCCCCCCCC=CC(O)C(N)COC1OC(CO)C(OC2OC(CO)C(O)C(OC3(C(=O)O)CC(O)C(N)C(C(O)C(O)CO)O3)C2O)C(O)C1O (stereo not shown)
hemolytic activity: twice that of lysolecithin
